In patent US20210093625A1, “COMBINATION THERAPY” (Celleron Therapeutics Limited, priority 2019, published 2021):

What was measured:
[1] = tested on: SW620 cells; experiment: RNA-seq of SW620 cells; type: cell-based, human
Description: We performed RNA-seq on polyA-enriched RNA to assess the effect of CXD101 on the global transcript profile in SW620 cells compared to the vehicle-alone (DMSO) treatment (18). The FASTQ data were aligned to the reference human genome (hg19) with STAR aligner and analysed for differential expression using Bioconductor and DESeq2 R suite (19). The sequencing data were of high quality with on average 92% of the reads able to be mapped to the genome (FIG. 1b).
(§1) SW620 cells were seeded into 6-well plates and left to adhere overnight. Cells were treated with 1 μM, 10 μM of CXD101 for 48 h. CT26 cells were seeded onto 100 mm plates and treated with 2.7 μM and 10 μM CXD101 for 72 h. After treatment cells were harvested and total RNA extracted by means of Promega ReliaPrepμ RNA Cell Miniprep System (Promega, USA). RNA was dissolved in RNAse free water and stored in −80° C. for future analysis. RNA concentration was measured by NanoDrop 2000 (Thermo Fisher Scientific, USA). Samples were qualified for library preparation if […]. Library preparation with poly (A) enrichment was performed by BGI.
(§2) FASTQ files for CXD101 and DMSO treated samples in three biological replicates were trimmed to remove adapters and low-quality bases with TrimGalore v.0.4.3(http://www.bioinformatics.babraham.ac.uk/projects/trim_galore/). The trimmed reads were aligned to the human reference genome (build hg19) with STAR aligner v.2.7 with two mismatches allowed. Differential gene expression analysis was done with the Bioconductor framework (v.3.8) and DESeq2 R package v.1.22, using read count data provided by the aligner. Genes were considered differentially expressed if the adjusted P, calculated using the Benjamini-Hochberg method in order to minimise the false discovery rate, was less than 0.01 (1%) and the change in expression level was greater than ˜2-fold as compared to DMSO control (e.g. |log_2(expression fold change) |>1).

[2] = tested on: colon26 tumours; experiment: RNAseq of colon26 tumours; type: in vivo, Balb/c mice; details: log2FC >1 and FDR <1%
Description: To assess gene expression in tumours that were growing in vivo, we evaluated the effect of CXD101 in the syngeneic colon26 colon carcinoma model in tumours grown subcutaneously in Balb/c mice, with CXD101 given orally for two 5-day consecutive periods and performed RNAseq on RNA purified from the tumours. Formalin-fixed paraffin-embedded samples were also prepared to assess by immunohistochemistry (IHC) the tumour micro-environment.
The effect was dose-dependent, as more tumour-inhibition occurred with a higher dose of CXD101 (50 mg/kg compared to 15 mg/kg). […] We performed RNA seq on polyA-enriched RNA prepared from the tumours. In a similar way to the analysis of colon26 in vitro, the RNAseq data was aligned to the reference M.musculus genome (mm10) with STAR aligner and analysed for differential expression.

[3] = tested on: colon26 cells; experiment: RNAseq of colon26 cells in vitro; type: cell-based, mouse; details: for differentially expressed genes that are immune-related: out of 1142 DEGs
Excerpt: The RNAseq data was aligned to the reference M.musculus genome (mm10) with STAR aligner and analysed for differential expression. […] Out of 1142 differentially expressed genes identified following CXD101 treatment, 36% (416) were immune-related when analysed using the immunogenicity database (ref), and 34% (388) and 15% (176) when analysed with Import and Immunome databases (ref). We further evaluated transcripts identified in the colon26 RNAseq at the single gene level, focussing on murine genes which are homologues of the immune-related genes identified in human SW620 cells, which included genes in the murine MHC H2 complex. A number of H2 genes including class I and class II genes were induced including H2-D1, DMA, DMB1 and EB1 (FIG. 6).
as §1, §2

[4] = biological target: HDAC1 (Homo sapiens, UniProt Q13547); experiment: HDAC1 inhibition; type: biochemical
[5] = biological target: HDAC2 (Homo sapiens, UniProt Q92769); experiment: HDAC2 inhibition; type: biochemical
[6] = biological target: HDAC3 (Homo sapiens, UniProt O15379); experiment: HDAC3 inhibition; type: biochemical
[7] = human patients, cited from earlier work
[8] = physchem; details: 25 °C, aqueous buffer
[9] = tested on: SW620 cells; experiment: qPCR of single genes in SW620 cells; type: cell-based, human; details: control gene, FIG. 3
Description: Total RNA purified from DMSO- or CXD101treated cells was transcribed into cDNA according to the manufacturer's instructions (iScript cDNA Synthesis Kit, Bio-Rad, USA). qPCR was conducted according to the manufacturer's protocol (SsoAdvanced Universal SYBR Green Supermix, Bio-Rad Laboratories, USA) on CFX Connect Real-Time System thermocycler (Bio-Rad Laboratories, USA).

[10] = colon26 cells in vitro, log2 FC >1 and FDR <1%

Sequence of HDAC1 (Q13547 whole entry, species assumed): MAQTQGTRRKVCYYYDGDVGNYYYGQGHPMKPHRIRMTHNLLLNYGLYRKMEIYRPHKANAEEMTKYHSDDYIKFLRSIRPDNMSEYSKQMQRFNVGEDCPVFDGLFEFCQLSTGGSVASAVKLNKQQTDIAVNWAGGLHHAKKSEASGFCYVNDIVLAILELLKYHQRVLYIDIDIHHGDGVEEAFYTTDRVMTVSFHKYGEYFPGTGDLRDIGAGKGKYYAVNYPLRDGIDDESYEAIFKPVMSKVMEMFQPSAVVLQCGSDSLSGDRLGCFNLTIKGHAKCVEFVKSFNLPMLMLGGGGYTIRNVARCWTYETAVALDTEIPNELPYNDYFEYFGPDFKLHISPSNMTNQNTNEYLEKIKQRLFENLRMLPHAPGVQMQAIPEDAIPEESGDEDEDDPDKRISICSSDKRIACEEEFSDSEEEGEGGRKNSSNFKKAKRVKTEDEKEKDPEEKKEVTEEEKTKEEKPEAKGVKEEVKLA
Sequence of HDAC2 (Q92769 whole entry, species assumed): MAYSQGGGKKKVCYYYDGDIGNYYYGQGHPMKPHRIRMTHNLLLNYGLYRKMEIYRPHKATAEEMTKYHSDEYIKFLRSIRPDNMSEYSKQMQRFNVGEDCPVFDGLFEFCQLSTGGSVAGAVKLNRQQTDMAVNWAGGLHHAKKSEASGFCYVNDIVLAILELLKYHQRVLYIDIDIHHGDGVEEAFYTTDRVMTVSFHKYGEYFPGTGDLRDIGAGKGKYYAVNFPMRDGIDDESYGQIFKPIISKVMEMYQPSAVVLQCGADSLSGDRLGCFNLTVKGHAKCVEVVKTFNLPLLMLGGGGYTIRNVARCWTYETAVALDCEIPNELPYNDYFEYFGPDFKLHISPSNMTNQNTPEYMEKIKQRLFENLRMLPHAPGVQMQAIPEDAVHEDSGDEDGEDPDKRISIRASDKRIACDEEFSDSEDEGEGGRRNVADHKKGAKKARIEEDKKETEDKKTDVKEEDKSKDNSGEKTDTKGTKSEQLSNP
Sequence of HDAC3 (O15379 whole entry, species assumed): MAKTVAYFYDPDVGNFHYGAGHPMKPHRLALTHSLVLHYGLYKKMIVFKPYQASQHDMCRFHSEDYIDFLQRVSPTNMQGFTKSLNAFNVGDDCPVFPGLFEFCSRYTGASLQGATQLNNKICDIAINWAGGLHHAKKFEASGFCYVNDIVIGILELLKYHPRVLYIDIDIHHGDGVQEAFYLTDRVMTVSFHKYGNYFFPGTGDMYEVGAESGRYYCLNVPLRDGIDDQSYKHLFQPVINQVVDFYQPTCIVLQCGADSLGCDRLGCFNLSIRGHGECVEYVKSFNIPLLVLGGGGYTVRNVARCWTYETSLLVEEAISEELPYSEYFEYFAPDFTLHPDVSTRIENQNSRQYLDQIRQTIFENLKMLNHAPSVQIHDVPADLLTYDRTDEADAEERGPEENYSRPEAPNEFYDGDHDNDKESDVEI
Sequence of HDAC3 (Q9Y618 395-489 partner limits assumed, species assumed): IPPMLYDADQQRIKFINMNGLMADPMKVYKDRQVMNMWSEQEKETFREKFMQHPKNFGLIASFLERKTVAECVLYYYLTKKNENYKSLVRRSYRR

Cc1nn(C)cc1CN1CCC(c2ccc(C(=O)Nc3ccccc3N)cc2)CC1 [CXD101, N-(2-aminophenyl)-4-(1-[(1,3-dimethyl-1H-pyrazol-4-yl)methyl]piperidin-4yl)benzamide]
proportion of DEGs down-regulated ([1]; SW620): 30% | proportion of DEGs up-regulated ([1]; SW620): 70% | number of differentially expressed transcripts (DEGs) ([1]; SW620, log2 FC >1 and FDR <1%, vs DMSO): about 2500 | size of DEG set in vivo [2]: 1141 | genes down-regulated [3, 10]: 611 | genes up-regulated [3, 10]: 1891 | size of DEG set in vitro ([3]; colon26 cells, log2FC >1 and FDR <1%): 2502 | differentially expressed genes that are immune-related ([3]; Immunome database): 15% | differentially expressed genes that are immune-related ([3]; Import database): 34% | differentially expressed genes that are immune-related ([3]; immunogenicity database): 36% | IC50 [4]: 63 nM | IC50 [5]: 570 nM | IC50 [6]: 550 nM | MTD ([7]; for 5 days in a 3-weekly cycle): 20 mg B.D. | safety profile [7]: favourable safety profile | solubility [8]: ≥ 500 µg/mL | expression of REPIN1 [9]: no effect
